Reference: patent publication US8759365B2, “Organic compounds” (Novartis AG, priority 2007, dated 2014)

Target: rhCETP (Homo sapiens (Human), UniProt P11597)
Experiment: CETP in vitro assay (CETP Activity Kit, fluorescence, rhCETP)
Assay type: biochemical
Conditions: CETP inhibition; Table 1 does not name the assay; read-out: IC50 (nM), Inhibitory Activity of Compounds
Method: CETP Activity Kit (#RB-RPAK) was purchased from Roar Biochemical, Inc. (New York, N.Y., USA). To each well of a 96-well NBS half-area plate (costar #3686), […] of the donor solution, 1 μL of the acceptor solution and 5 μL compound solution diluted in 100% DMSO were added in a 38 μL of buffer containing 10 mM Tris, 150 mM NaCl and 2 mM EDTA, pH 7.4. Then, the plate was sealed with Themowell™ Sealers (costar #6524) and followed by a mixing on a plate shaker by MICROPLATE MIXER MPX-96 (IWAKI) at power 3 for 10 sec at room temperature. After 10-min incubation at 37° C., the reaction was started by adding 5 μL of rhCETP solution (Cardiovascular Target, New York, N.Y., USA) and mixed on the plate shaker for 10 sec, then the fluorescence intensity at 0 min was measured by a ARVO SX (Perkin Elmerr, USA) at excitation wavelength of 465 nm and emission wavelength of 535 nm. After 120 min-incubation at 37° C., fluorescence intensity was measured again. The inhibition of rhCETP activity by a compound was calculated by the following calculation. Inhibition %={1−(F120−F0)/(f120−f0)}×100 F: measured fluorescence intensity with compound at 0 or 120 min. f: measured fluorescence intensity of without compound at 0 or 120 min.
The IC50 values are determined from the dose-effect curve by Origin software. IC50 values, especially from about 0.1 nM to about 50 μM, are determined for the compounds of the present invention or a pharmaceutically acceptable salt thereof.

Sequence of rhCETP (P11597 18-493): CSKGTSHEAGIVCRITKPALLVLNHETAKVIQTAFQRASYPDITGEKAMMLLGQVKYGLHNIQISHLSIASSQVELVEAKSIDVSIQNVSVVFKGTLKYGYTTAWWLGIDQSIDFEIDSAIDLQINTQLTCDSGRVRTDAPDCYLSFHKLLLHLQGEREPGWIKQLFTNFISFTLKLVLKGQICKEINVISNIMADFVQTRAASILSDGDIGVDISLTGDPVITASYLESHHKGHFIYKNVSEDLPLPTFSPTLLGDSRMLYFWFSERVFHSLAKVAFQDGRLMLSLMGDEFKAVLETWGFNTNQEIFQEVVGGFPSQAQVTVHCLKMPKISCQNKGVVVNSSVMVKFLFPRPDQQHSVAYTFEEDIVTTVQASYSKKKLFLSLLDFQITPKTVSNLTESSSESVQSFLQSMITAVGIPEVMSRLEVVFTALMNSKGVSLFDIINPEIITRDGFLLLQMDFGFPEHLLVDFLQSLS

Compound | IC50 [nM]
CC[C@@H]1C[C@H](N(Cc2cc(C(F)(F)F)cc(C(F)(F)F)c2)c2ncc(-c3cnn(C)c3)cn2)CN1C(=O)C1CCCCC1 [Example 5-3, ((2R,4S)-4-{(3,5-Bis-trifluoromethyl-benzyl)-[5-(1-methyl-1H-pyrazol-4-yl)-pyrimidin-2-yl]-amino}-2-ethyl-pyrrolidin-1-yl)-cyclohexyl-methanone] | 92
CC[C@@H]1C[C@H](N(Cc2cc(C(F)(F)F)cc(C(F)(F)F)c2)c2ncc(-c3cnn(C)c3)cn2)CN1C(=O)OCC(C)(C)C [Example 6-2, (2R,4S)-4-{(3,5-Bis-trifluoromethyl-benzyl)-[5-(1-methyl-1H-pyrazol-4-yl)-pyrimidin-2-yl]-amino}-2-ethyl-pyrrolidine-1-carboxylic acid 2,2-dimethyl-propyl ester] | 47
CC[C@@H]1C[C@H](N(Cc2cc(C(F)(F)F)cc(C(F)(F)F)c2)c2ncc(-c3cnn(C)c3)cn2)CN1C(=O)OC1CCOCC1 [Example 7-4, (2R,4S)-4-{(3,5-Bis-trifluoromethyl-benzyl)-[5-(1-methyl-1H-pyrazol-4-yl)-pyrimidin-2-yl]-amino}-2-ethyl-pyrrolidine-1-carboxylic acid tetrahydro-pyran-4-yl ester] | 60
CC[C@@H]1C[C@H](N(Cc2cc(C(F)(F)F)cc(C(F)(F)F)c2)c2ncc(-c3cnn(C)c3)cn2)CN1C(=O)OCC1CCOCC1 [Example 7-6, (2R,4S)-4-{(3,5-Bis-trifluoromethyl-benzyl)-[5-(1-methyl-1H-pyrazol-4-yl)-pyrimidin-2-yl]-amino}-2-ethyl-pyrrolidine-1-carboxylic acid tetrahydro-pyran-4-ylmethyl ester] | 46
CC[C@@H]1C[C@H](N(Cc2cc(C(F)(F)F)cc(C(F)(F)F)c2)c2ncc(-c3cnn(C)c3)cn2)CN1C(=O)OCC(F)(F)F [Example 9-2, (2R,4S)-4-{(3,5-Bis-trifluoromethyl-benzyl)-[5-(1-methyl-1H-pyrazol-4-yl)-pyrimidin-2-yl]-amino}-2-ethyl-pyrrolidine-1-carboxylic acid 2,2,2-trifluoro-ethyl ester] | 59
CC[C@@H]1C[C@H](N(Cc2cc(C(F)(F)F)cc(C(F)(F)F)c2)c2ncc(-c3cnn(C)c3)cn2)CN1C(=O)O[C@@H](C)CC [Example 9-5, (2R,4S)-4-{(3,5-Bis-trifluoromethyl-benzyl)-[5-(1-methyl-1H-pyrazol-4-yl)-pyrimidin-2-yl]-amino}-2-ethyl-pyrrolidine-1-carboxylic acid (S)-sec-butyl ester] | 54
CC[C@@H]1C[C@H](N(Cc2cc(C(F)(F)F)cc(C(F)(F)F)c2)c2ncc(-c3cnn(C)c3)cn2)CN1C(=O)OCC1(CC)COC1 [Example 9-6, (2R,4S)-4-{(3,5-Bis-trifluoromethyl-benzyl)-[5-(1-methyl-1H-pyrazol-4-yl)-pyrimidin-2-yl]-amino}-2-ethyl-pyrrolidine-1-carboxylic acid 3-ethyl-oxetan-3-ylmethyl ester] | 70
CC[C@@H]1C[C@H](N(Cc2cc(C(F)(F)F)cc(C(F)(F)F)c2)c2ncc(N3CC[C@H](O)C3)cn2)CN1C(=O)OC(C)C [Example 11, (2R,4S)-4-{(3,5-Bis-trifluoromethyl-benzyl)-[5-((S)-3-hydroxy-pyrrolidin-1-yl)-pyrimidin-2-yl]-amino}-2-ethyl-pyrrolidine-1-carboxylic acid isopropyl ester] | 72
CC[C@@H]1C[C@H](N(Cc2cc(C(F)(F)F)cc(C(F)(F)F)c2)c2ncc(-c3cn[nH]c3)cn2)CN1C(=O)OC(C)C [Example 14, (2R,4S)-4-{(3,5-Bis-trifluoromethyl-benzyl)-[5-(1H-pyrazol-4-yl)-pyrimidin-2-yl]-amino}-2-ethyl-pyrrolidine-1-carboxylic acid isopropyl ester] | 34
CC[C@@H]1C[C@H](N(Cc2cc(C(F)(F)F)cc(C(F)(F)F)c2)c2ncc(-c3cnn(C)c3)cn2)CN1C(=O)N1CCCC1 [Example 16, ((2R,4S)-4-{(3,5-Bis-trifluoromethyl-benzyl)-[5-(1-methyl-1H-pyrazol-4-yl)-pyrimidin-2-yl]-amino}-2-ethyl-pyrrolidin-1-yl)-pyrrolidin-1-yl-methanone] | 39
CC[C@@H]1C[C@H](N(Cc2cc(C(F)(F)F)cc(C(F)(F)F)c2)c2ncc(-c3cnn(C)c3)cn2)CN1C(=O)N(C)C [Example 18, (2R,4S)-4-{(3,5-Bis-trifluoromethyl-benzyl)-[5-(1-methyl-1H-pyrazol-4-yl)-pyrimidin-2-yl]-amino}-2-ethyl-pyrrolidine-1-carboxylic acid dimethylamide] | 63
CC[C@@H]1C[C@H](N(Cc2cc(C(F)(F)F)cc(C(F)(F)F)c2)c2ncc(N3CC[C@H](O)C3)cn2)CN1c1nc(N2CCC(O)CC2)ncc1Cl [Example 23-6] | 110

The remaining compounds from weak to strong by IC50, led by results:

IC50 [nM] | Compound
70 | CC[C@@H]1C[C@H](N(Cc2cc(C(F)(F)F)cc(C(F)(F)F)c2)c2ncc(-c3cnn(C)c3)cn2)CN1C(=O)OC1CCCC1 [Example 9-3, (2R,4S)-4-{(3,5-Bis-trifluoromethyl-benzyl)-[5-(1-methyl-1H-pyrazol-4-yl)-pyrimidin-2-yl]-amino}-2-ethyl-pyrrolidine-1-carboxylic acid cyclopentyl ester]
69 | CC[C@@H]1C[C@H](N(Cc2cc(C(F)(F)F)cc(C(F)(F)F)c2)c2ncc(-c3cnn(C)c3)cn2)CN1C(=O)OCC(C)C [Example 6-1, (2R,4S)-4-{(3,5-Bis-trifluoromethyl-benzyl)-[5-(1-methyl-1H-pyrazol-4-yl)-pyrimidin-2-yl]-amino}-2-ethyl-pyrrolidine-1-carboxylic acid isobutyl ester]
41 | CCC(CC)OC(=O)N1C[C@@H](N(Cc2cc(C(F)(F)F)cc(C(F)(F)F)c2)c2ncc(-c3cnn(C)c3)cn2)C[C@H]1CC [Example 9-1, (2R,4S)-4-{(3,5-Bis-trifluoromethyl-benzyl)-[5-(1-methyl-1H-pyrazol-4-yl)-pyrimidin-2-yl]-amino}-2-ethyl-pyrrolidine-1-carboxylic acid 1-ethyl-propyl ester]
32 | CC[C@@H]1C[C@H](N(Cc2cc(C(F)(F)F)cc(C(F)(F)F)c2)c2ncc(-c3cnn(C)c3)cn2)CN1C(=O)N1CCOCC1 [Example 17, ((2R,4S)-4-{(3,5-Bis-trifluoromethyl-benzyl)-[5-(1-methyl-1H-pyrazol-4-yl)-pyrimidin-2-yl]-amino}-2-ethyl-pyrrolidin-1-yl)-morpholin-4-yl-methanone]
30 | CC[C@@H]1C[C@H](N(Cc2cc(C(F)(F)F)cc(C(F)(F)F)c2)c2ncc(-c3cnn(C)c3)cn2)CN1c1nc(N2CCC(O)CC2)ncc1Cl [Example 23-10]
25 | CC[C@@H]1C[C@H](N(Cc2cc(C(F)(F)F)cc(C(F)(F)F)c2)c2ncc(-c3cnn(C)c3)cn2)CN1C(=O)N1CCCCC1 [Example 16-2, ((2R,4S)-4-{(3,5-Bis-trifluoromethyl-benzyl)-[5-(1-methyl-1H-pyrazol-4-yl)-pyrimidin-2-yl]-amino}-2-ethyl-pyrrolidin-1-yl)-piperidin-1-yl-methanone]
21 | CC[C@@H]1C[C@H](N(Cc2cc(C(F)(F)F)cc(C(F)(F)F)c2)c2ncc(-c3cnn(C)c3)cn2)CN1C(=O)O[C@H](C)CC [Example 9-4, (2R,4S)-4-{(3,5-Bis-trifluoromethyl-benzyl)-[5-(1-methyl-1H-pyrazol-4-yl)-pyrimidin-2-yl]-amino}-2-ethyl-pyrrolidine-1-carboxylic acid (R)-sec-butyl ester]
